Measurements: the supplement of paper PMC10307832

How the values were obtained:
Assay in all cases: relative viability (nuclei count vs DMSO), 5 days (fraction); higher = more cells survive
A549 = test system: A549
Outline: (§1)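 Five library-drug doses in √10 steps were combined with a fixed anchor-drug dose, or a single drug was given alone, by pin tool to lung cancer cell lines in 1536-well plates the day after seeding. Nuclei were stained and counted after 5 days. Relative viability is the nuclei count in treated wells over that in vehicle wells, taken as the median of duplicate plates.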

Calu-6 = test system: Calu-6
Outline: as §1

EBC-1 = test system: EBC-1
Outline: as §1

EMC-BAC-2 = test system: EMC-BAC-2
Outline: as §1

HCC-366 = test system: HCC-366
Outline: as §1

HCC-78 = test system: HCC-78
Outline: as §1

IA-LM = test system: IA-LM
Outline: as §1

LCLC-97TM1 = test system: LCLC-97TM1
Outline: as §1

NCI-H1299 = test system: NCI-H1299
Outline: as §1

NCI-H1395 = test system: NCI-H1395
Outline: as §1

NCI-H1703 = test system: NCI-H1703
Outline: as §1

Q: With CN1CCN(CCOc2cc(OC3CCOCC3)c3c(Nc4c(Cl)ccc5c4OCO5)ncnc3c2)CC1 [Saracatinib] + CC1(C)CCC(c2ccc(Cl)cc2)=C(CN2CCN(c3ccc(C(=O)NS(=O)(=O)c4ccc(N[C@H](CCN5CCOCC5)CSc5ccccc5)c(S(=O)(=O)C(F)(F)F)c4)cc3)CC2)C1 [Navitoclax] (partner 0.5 µM) as the compound, how does the relative viability (A549; first compound 0.02 µM) read?
A: 1.42

Q: And the relative viability (A549; first compound 0.2 µM)?
A: 0.903

Q: What about the relative viability (A549; first compound 0.6325 µM) of the same compound?
A: 1.39

Q: What about the relative viability (A549; first compound 2 µM) of the same compound?
A: 1.38

Q: And the relative viability (Calu-6; first compound 0.02 µM)?
A: 0.914

Q: And the relative viability (Calu-6; first compound 0.2 µM)?
A: 0.746

Q: What about the relative viability (Calu-6; first compound 0.6325 µM) of the same compound?
A: 0.731

Q: What about the relative viability (Calu-6; first compound 2 µM) of the same compound?
A: 0.562

Q: What about the relative viability (EBC-1; first compound 0.02 µM) of the same compound?
A: 0.542

Q: What about the relative viability (EBC-1; first compound 0.2 µM) of the same compound?
A: 0.408

Q: What about the relative viability (EBC-1; first compound 0.6325 µM) of the same compound?
A: 0.393

Q: And the relative viability (EBC-1; first compound 2 µM)?
A: 0.43

Q: What about the relative viability (EMC-BAC-2; first compound 0.02 µM) of the same compound?
A: 1.15

Q: What about the relative viability (EMC-BAC-2; first compound 0.2 µM) of the same compound?
A: 1.16

Q: And the relative viability (EMC-BAC-2; first compound 0.6325 µM)?
A: 1.15

Q: And the relative viability (EMC-BAC-2; first compound 2 µM)?
A: 0.993

Q: And the relative viability (HCC-366; first compound 0.02 µM)?
A: 1.03

Q: And the relative viability (HCC-366; first compound 0.6325 µM)?
A: 1.08

Q: What about the relative viability (HCC-366; first compound 2 µM) of the same compound?
A: 0.7

Q: What about the relative viability (HCC-78; first compound 0.02 µM) of the same compound?
A: 0.733

Q: What about the relative viability (HCC-78; first compound 0.2 µM) of the same compound?
A: 0.779

Q: What about the relative viability (HCC-78; first compound 0.6325 µM) of the same compound?
A: 1.08

Q: What about the relative viability (HCC-78; first compound 2 µM) of the same compound?
A: 0.875

Q: What about the relative viability (IA-LM; first compound 0.02 µM) of the same compound?
A: 0.865

Q: What about the relative viability (IA-LM; first compound 0.6325 µM) of the same compound?
A: 1.45

Q: And the relative viability (IA-LM; first compound 2 µM)?
A: 1

Q: What about the relative viability (LCLC-97TM1; first compound 0.02 µM) of the same compound?
A: 0.422

Q: What about the relative viability (LCLC-97TM1; first compound 0.2 µM) of the same compound?
A: 0.356

Q: What about the relative viability (LCLC-97TM1; first compound 0.6325 µM) of the same compound?
A: 0.501

Q: What about the relative viability (LCLC-97TM1; first compound 2 µM) of the same compound?
A: 0.46

Q: What about the relative viability (NCI-H1299; first compound 0.02 µM) of the same compound?
A: 1.01

Q: And the relative viability (NCI-H1299; first compound 0.2 µM)?
A: 1.06

Q: What about the relative viability (NCI-H1299; first compound 0.6325 µM) of the same compound?
A: 1.04

Q: What about the relative viability (NCI-H1299; first compound 2 µM) of the same compound?
A: 1.04

Q: And the relative viability (NCI-H1395; first compound 0.02 µM)?
A: 1.37

Q: What about the relative viability (NCI-H1395; first compound 0.2 µM) of the same compound?
A: 0.902

Q: And the relative viability (NCI-H1395; first compound 0.6325 µM)?
A: 1.09

Q: What about the relative viability (NCI-H1395; first compound 2 µM) of the same compound?
A: 1.08

Q: What about the relative viability (NCI-H1703; first compound 0.02 µM) of the same compound?
A: 1.09

Q: What about the relative viability (NCI-H1703; first compound 0.2 µM) of the same compound?
A: 0.904

Q: What about the relative viability (NCI-H1703; first compound 0.6325 µM) of the same compound?
A: 0.43

Q: And the relative viability (NCI-H1703; first compound 2 µM)?
A: 0.269

Q: Which relative viability (A549; first compound 0.02 µM) does the source give for CN1CCN(CCOc2cc(OC3CCOCC3)c3c(Nc4c(Cl)ccc5c4OCO5)ncnc3c2)CC1 [Saracatinib] + CS(=O)(=O)CCNCc1ccc(-c2ccc3ncnc(Nc4ccc(OCc5cccc(F)c5)c(Cl)c4)c3c2)o1 [Lapatinib] (partner 2 µM) here?
A: 1.06

Q: What about the relative viability (A549; first compound 0.2 µM) of the same compound?
A: 1.01

Q: And the relative viability (A549; first compound 0.6325 µM)?
A: 0.812

Q: And the relative viability (A549; first compound 2 µM)?
A: 0.791

Q: What about the relative viability (Calu-6; first compound 0.02 µM) of the same compound?
A: 1.08

Q: And the relative viability (Calu-6; first compound 0.2 µM)?
A: 0.839

Q: What about the relative viability (Calu-6; first compound 0.6325 µM) of the same compound?
A: 0.913

Q: What about the relative viability (Calu-6; first compound 2 µM) of the same compound?
A: 0.745

Q: What about the relative viability (EBC-1; first compound 0.02 µM) of the same compound?
A: 0.199

Q: And the relative viability (EBC-1; first compound 0.2 µM)?
A: 0.23

Q: What about the relative viability (EBC-1; first compound 0.6325 µM) of the same compound?
A: 0.197

Q: And the relative viability (EBC-1; first compound 2 µM)?
A: 0.212

Q: And the relative viability (EMC-BAC-2; first compound 0.02 µM)?
A: 0.91

Q: What about the relative viability (EMC-BAC-2; first compound 0.2 µM) of the same compound?
A: 0.792

Q: And the relative viability (EMC-BAC-2; first compound 0.6325 µM)?
A: 0.945

Q: What about the relative viability (EMC-BAC-2; first compound 2 µM) of the same compound?
A: 0.761

Q: And the relative viability (HCC-366; first compound 0.02 µM)?
A: 1.02

Q: What about the relative viability (HCC-366; first compound 0.6325 µM) of the same compound?
A: 1.04

Q: What about the relative viability (HCC-366; first compound 2 µM) of the same compound?
A: 0.707

Q: What about the relative viability (HCC-78; first compound 0.02 µM) of the same compound?
A: 0.822

Q: What about the relative viability (HCC-78; first compound 0.2 µM) of the same compound?
A: 0.481

Q: And the relative viability (HCC-78; first compound 0.6325 µM)?
A: 0.686

Q: And the relative viability (HCC-78; first compound 2 µM)?
A: 0.778

Q: And the relative viability (IA-LM; first compound 0.02 µM)?
A: 0.803

Q: And the relative viability (IA-LM; first compound 0.2 µM)?
A: 0.799

Q: What about the relative viability (IA-LM; first compound 0.6325 µM) of the same compound?
A: 1.19

Q: And the relative viability (IA-LM; first compound 2 µM)?
A: 0.799

Q: What about the relative viability (LCLC-97TM1; first compound 0.02 µM) of the same compound?
A: 1.34

Q: And the relative viability (LCLC-97TM1; first compound 0.2 µM)?
A: 0.771

Q: What about the relative viability (LCLC-97TM1; first compound 0.6325 µM) of the same compound?
A: 0.861

Q: What about the relative viability (LCLC-97TM1; first compound 2 µM) of the same compound?
A: 0.401

Q: And the relative viability (NCI-H1299; first compound 0.02 µM)?
A: 0.982

Q: What about the relative viability (NCI-H1299; first compound 0.2 µM) of the same compound?
A: 1.02

Q: And the relative viability (NCI-H1299; first compound 0.6325 µM)?
A: 1

Q: And the relative viability (NCI-H1299; first compound 2 µM)?
A: 0.941

Q: And the relative viability (NCI-H1395; first compound 0.02 µM)?
A: 0.911

Q: What about the relative viability (NCI-H1395; first compound 0.2 µM) of the same compound?
A: 0.921

Q: What about the relative viability (NCI-H1395; first compound 0.6325 µM) of the same compound?
A: 0.953

Q: And the relative viability (NCI-H1395; first compound 2 µM)?
A: 0.733

Q: And the relative viability (NCI-H1703; first compound 0.02 µM)?
A: 0.873

Q: What about the relative viability (NCI-H1703; first compound 0.2 µM) of the same compound?
A: 1.02

Q: And the relative viability (NCI-H1703; first compound 0.6325 µM)?
A: 0.376

Q: What about the relative viability (NCI-H1703; first compound 2 µM) of the same compound?
A: 0.283
